PubChem BioAssay AID1259407 (Chemical Carcinogenesis Research Information System (CCRIS), 2018)
The source made the active and inactive calls. No rule for the calls is given here.

Test system: CCRIS mutagenicity, Ames/micronucleus/aberration tests
Assay: CCRIS mutagenicity studies
From the text: The CCRIS database contains chemical records with carcinogenicity, mutagenicity, tumor promotion, and tumor inhibition test results. It was developed by the National Cancer Institute (NCI). Data are derived from studies cited in primary journals, current awareness tools, NCI reports, and other sources. Test results have been reviewed by experts in carcinogenesis and mutagenesis.
CCRIS provides historical information from the years 1985 - 2011. It is no longer updated.
This is an archive assay for CCRIS mutagenicity studies.

[1] = Test System: AMES SALMONELLA TYPHIMURIUM, Strain/Indicator: TA98, Metabolic Activation: NONE, Method: PREINCUBATION
[2] = Test System: AMES SALMONELLA TYPHIMURIUM, Strain/Indicator: TA100, Metabolic Activation: NONE, Method: PREINCUBATION
[3] = Test System: AMES SALMONELLA TYPHIMURIUM, Strain/Indicator: TA100, Metabolic Activation: NONE, Method: STANDARD PLATE
[4] = Test System: AMES SALMONELLA TYPHIMURIUM, Strain/Indicator: TA100, Metabolic Activation: RAT, LIVER, S-9, AROCLOR 1254, Method: STANDARD PLATE

Structure (SMILES): COc1cc(O)c2c(=O)c3cc(OC)ccc3oc2c1
- mutagenic call (Test System: AMES SALMONELLA TYPHIMURIUM, Strain/Indicator: TA97, Metabolic Activation: RAT, LIVER, S-9, PHENOBARBITAL AND 5,6-BENZOFLAVONE, Method: PREINCUBATION): active; positive
- mutagenic call (Test System: AMES SALMONELLA TYPHIMURIUM, Strain/Indicator: TA98, Metabolic Activation: RAT, LIVER, S-9, PHENOBARBITAL AND 5,6-BENZOFLAVONE, Method: PREINCUBATION): inactive; negative
- mutagenic call (Test System: AMES SALMONELLA TYPHIMURIUM, Strain/Indicator: TA100, Metabolic Activation: RAT, LIVER, S-9, PHENOBARBITAL AND 5,6-BENZOFLAVONE, Method: PREINCUBATION): active; positive
- mutagenic call (Test System: AMES SALMONELLA TYPHIMURIUM, Strain/Indicator: TA2637, Metabolic Activation: RAT, LIVER, S-9, PHENOBARBITAL AND 5,6-BENZOFLAVONE, Method: PREINCUBATION): active; positive

Structure (SMILES): CCc1c2ccccc2cc2c3c(ccc12)[C@H](O)[C@@H](O)[C@H]1O[C@@H]31
- mutagenic call [1]: active; positive
- mutagenic call [2]: active; positive
- mutagenic call (Test System: CHINESE HAMSTER V-79, Strain/Indicator: V-79/6-THIOGUANINE, Metabolic Activation: NONE): active; positive

Structure (SMILES): CC/C=C/C=C/C=C/C=C/C=O
- mutagenic call (Test System: AMES SALMONELLA TYPHIMURIUM, Strain/Indicator: TA98, Metabolic Activation: NONE, Method: STANDARD PLATE): inactive; negative
- mutagenic call [3]: inactive; negative
- mutagenic call (Test System: AMES SALMONELLA TYPHIMURIUM, Strain/Indicator: TA104, Metabolic Activation: NONE, Method: STANDARD PLATE): inactive; negative

Structure (SMILES): Cc1c2cc(CO)ccc2nc2c1ccc1ccccc12
- mutagenic call [4]: active; positive

Structure (SMILES): Nc1nc2ccccc2[nH]1
- mutagenic call (Test System: AMES SALMONELLA TYPHIMURIUM, Strain/Indicator: TA97, Metabolic Activation: HAMSTER, LIVER, S-9, AROCLOR 1254 (10%), Method: PREINCUBATION): inactive; negative
- mutagenic call (Test System: AMES SALMONELLA TYPHIMURIUM, Strain/Indicator: TA97, Metabolic Activation: HAMSTER, LIVER, S-9, AROCLOR 1254 (30%), Method: PREINCUBATION): inactive; negative
- mutagenic call (Test System: AMES SALMONELLA TYPHIMURIUM, Strain/Indicator: TA97, Metabolic Activation: NONE, Method: PREINCUBATION): inactive; negative
- mutagenic call (Test System: AMES SALMONELLA TYPHIMURIUM, Strain/Indicator: TA97, Metabolic Activation: RAT, LIVER, S-9, AROCLOR 1254 (10%), Method: PREINCUBATION): inactive; negative
- mutagenic call (Test System: AMES SALMONELLA TYPHIMURIUM, Strain/Indicator: TA97, Metabolic Activation: RAT, LIVER, S-9, AROCLOR 1254 (30%), Method: PREINCUBATION): inactive; negative
- mutagenic call (Test System: AMES SALMONELLA TYPHIMURIUM, Strain/Indicator: TA98, Metabolic Activation: HAMSTER, LIVER, S-9, AROCLOR 1254 (10%), Method: PREINCUBATION): inactive; negative
- mutagenic call (Test System: AMES SALMONELLA TYPHIMURIUM, Strain/Indicator: TA98, Metabolic Activation: HAMSTER, LIVER, S-9, AROCLOR 1254 (30%), Method: PREINCUBATION): inactive; negative
- mutagenic call [1]: inactive; negative
- mutagenic call (Test System: AMES SALMONELLA TYPHIMURIUM, Strain/Indicator: TA98, Metabolic Activation: RAT, LIVER, S-9, AROCLOR 1254 (10 OR 30%), Method: PREINCUBATION): inactive; negative
- mutagenic call (Test System: AMES SALMONELLA TYPHIMURIUM, Strain/Indicator: TA98, Metabolic Activation: RAT, LIVER, S-9, AROCLOR 1254, Method: PREINCUBATION): active; positive
- mutagenic call (Test System: AMES SALMONELLA TYPHIMURIUM, Strain/Indicator: TA100, Metabolic Activation: HAMSTER, LIVER, S-9, AROCLOR 1254 (10%), Method: PREINCUBATION): inactive; negative
- mutagenic call (Test System: AMES SALMONELLA TYPHIMURIUM, Strain/Indicator: TA100, Metabolic Activation: HAMSTER, LIVER, S-9, AROCLOR 1254 (30%), Method: PREINCUBATION): inactive; negative
- mutagenic call [2]: inactive; negative
- mutagenic call (Test System: AMES SALMONELLA TYPHIMURIUM, Strain/Indicator: TA100, Metabolic Activation: RAT, LIVER, S-9, AROCLOR 1254 (5%), Method: PREINCUBATION): inactive; negative
- mutagenic call (Test System: AMES SALMONELLA TYPHIMURIUM, Strain/Indicator: TA100, Metabolic Activation: RAT, LIVER, S-9, AROCLOR 1254 (10 OR 30%), Method: PREINCUBATION): inactive; negative
- mutagenic call (Test System: AMES SALMONELLA TYPHIMURIUM, Strain/Indicator: TA100, Metabolic Activation: RAT, LIVER, S-9, AROCLOR 1254, Method: PREINCUBATION): inactive; negative
- mutagenic call (Test System: AMES SALMONELLA TYPHIMURIUM, Strain/Indicator: TA1535, Metabolic Activation: HAMSTER, LIVER, S-9, AROCLOR 1254 (10%), Method: PREINCUBATION): inactive; negative
- mutagenic call (Test System: AMES SALMONELLA TYPHIMURIUM, Strain/Indicator: TA1535, Metabolic Activation: HAMSTER, LIVER, S-9, AROCLOR 1254 (30%), Method: PREINCUBATION): inactive; negative
- mutagenic call (Test System: AMES SALMONELLA TYPHIMURIUM, Strain/Indicator: TA1535, Metabolic Activation: NONE, Method: PREINCUBATION): inactive; negative
- mutagenic call (Test System: AMES SALMONELLA TYPHIMURIUM, Strain/Indicator: TA1535, Metabolic Activation: RAT, LIVER, S-9, AROCLOR 1254 (10 OR 30%), Method: PREINCUBATION): inactive; negative
- mutagenic call (Test System: AMES SALMONELLA TYPHIMURIUM, Strain/Indicator: TA1537, Metabolic Activation: HAMSTER, LIVER, S-9, AROCLOR 1254 (10%), Method: PREINCUBATION): inactive; negative
- mutagenic call (Test System: AMES SALMONELLA TYPHIMURIUM, Strain/Indicator: TA1537, Metabolic Activation: HAMSTER, LIVER, S-9, AROCLOR 1254 (30%), Method: PREINCUBATION): inactive; negative
- mutagenic call (Test System: AMES SALMONELLA TYPHIMURIUM, Strain/Indicator: TA1537, Metabolic Activation: NONE, Method: PREINCUBATION): inactive; negative
- mutagenic call (Test System: AMES SALMONELLA TYPHIMURIUM, Strain/Indicator: TA1537, Metabolic Activation: RAT, LIVER, S-9, AROCLOR 1254 (10 OR 30%), Method: PREINCUBATION): inactive; negative

Structure (SMILES): C[C@H](CCC(=O)O)[C@H]1CC[C@H]2[C@@H]3[C@@H](O)C[C@@H]4C[C@H](O)CC[C@]4(C)[C@H]3CC[C@]12C
- mutagenic call (Test System: AMES SALMONELLA TYPHIMURIUM, Strain/Indicator: TA98, Metabolic Activation: NONE, Method: FLUCTUATION TEST): active; positive
- mutagenic call (Test System: AMES SALMONELLA TYPHIMURIUM, Strain/Indicator: TA100, Metabolic Activation: NONE, Method: FLUCTUATION TEST): inactive; negative
- mutagenic call [3]: inactive; negative
- mutagenic call [4]: inactive; negative

Structure (SMILES): Cc1cc(O)c2c(c1O)C(=O)c1cccc(O)c1C2=O
- mutagenic call (Test System: UDS RODENT HEPATOCYTES, Strain/Indicator: THY INCORP, Metabolic Activation: NONE, Method: AUTORADIOGRAPHY): inactive; negative

Structure (SMILES): CCc1cccc(CC)c1N=O
- mutagenic call [1]: active; positive
- mutagenic call (Test System: AMES SALMONELLA TYPHIMURIUM, Strain/Indicator: TA98, Metabolic Activation: RAT, LIVER, MICROSOMES, PHENOBARBITAL, Method: PREINCUBATION): active; positive
- mutagenic call (Test System: AMES SALMONELLA TYPHIMURIUM, Strain/Indicator: TA100, Metabolic Activation: RAT, LIVER, MICROSOMES, PHENOBARBITAL, Method: PREINCUBATION): active; positive

Structure (SMILES): NC(CO)C(=O)O (centres undefined)
- mutagenic call (Test System: AMES SALMONELLA TYPHIMURIUM, Strain/Indicator: TA98, Metabolic Activation: RAT LIVER S-9, CHLOROPHENE, Method: STANDARD PLATE (COMPOUND HEATED AT 250 DEGREES CELSIUS FOR 20 MIN)): inactive; negative
